The results in this text go back to ChEMBL document CHEMBL5727130, “Pyridone derivative, pharmaceutical containing the same and methods of use thereof” (2018).

Some results are limits rather than exact numbers.

The nature of the test: Inhibition Assay: The TACE inhibition test was carried out by measuring TACE activity in the presence and the absence of the test substance using the thus-obtained TACE as an enzyme, and a fluorescent synthetic substrate Nma(N-methylanthranilic acid)-Leu-Ala-Gln-Ala-Val-Arg-Ser-Ser-Lys(Dnp(dinitrophenyl))-D-Arg-NH2 (SEQ ID NO: 1) including the TACE-cleaved sequence of a membrane-bound TNF as a substrate. The TACE inhibition test method is shown below. Namely, 90 μL of an enzyme solution prepared with an assay buffer A (50 mM tris-hydrochloric acid buffer (pH 7.5) including 200 mM sodium chloride, 5 mM calcium chloride, 10 μM zinc sulfate, and 2 mg/mL bovine serum albumin) and 90 μL of a fluorescent synthetic substrate prepared with an assay buffer B (50 mM tris-hydrochloric acid buffer (pH 7.5) including 200 mM sodium chloride, 5 mM calcium chloride, 10 μM zinc sulfate, and 0.05% PLURONIC F-68) were mixed together, and reacted at 37° C. for 1.5 hours. Enzyme activity was then determined by measuring with a fluorescence intensity meter (Labsystems, Fluoroskan Ascent) at an excitation wavelength of 355 nm and a measurement wavelength of 460 nm.

Consider `Cc1cccn(CC2(c3ccc(F)c(F)c3)NC(=O)NC2=O)c1=O` (configuration not stated), for which the IC50 was less than 0.1 µM.
In the case of `Cc1cccn(CC2(c3ccc(Oc4ccc(Cl)cc4)cc3)NC(=O)NC2=O)c1=O` (configuration not stated) it was less than 0.1 µM.

What is called IC50 is the point on the concentration scale where inhibition reaches its midpoint.
